Consider five compounds from ChEMBL document CHEMBL5291721, “A preclinical secondary pharmacology resource illuminates target-adverse drug reaction associations of marketed drugs” (Nat Commun, 2023).

One assay has as its target T1, Adenosine receptor A3 (Homo sapiens, UniProt P0DMS8).
T1 sequence (P0DMS8 whole entry): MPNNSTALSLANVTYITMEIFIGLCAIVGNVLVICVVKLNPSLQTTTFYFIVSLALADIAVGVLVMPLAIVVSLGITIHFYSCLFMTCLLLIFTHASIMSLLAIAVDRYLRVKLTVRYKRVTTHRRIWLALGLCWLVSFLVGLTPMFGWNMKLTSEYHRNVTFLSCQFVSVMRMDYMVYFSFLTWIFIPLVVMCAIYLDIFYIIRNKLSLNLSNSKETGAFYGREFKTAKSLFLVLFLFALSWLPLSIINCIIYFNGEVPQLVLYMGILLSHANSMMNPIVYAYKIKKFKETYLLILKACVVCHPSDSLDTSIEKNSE

For assay [1], the target named is Delta-type opioid receptor (Homo sapiens, UniProt P41143).
Chain of Delta-type opioid receptor (P41143 whole entry): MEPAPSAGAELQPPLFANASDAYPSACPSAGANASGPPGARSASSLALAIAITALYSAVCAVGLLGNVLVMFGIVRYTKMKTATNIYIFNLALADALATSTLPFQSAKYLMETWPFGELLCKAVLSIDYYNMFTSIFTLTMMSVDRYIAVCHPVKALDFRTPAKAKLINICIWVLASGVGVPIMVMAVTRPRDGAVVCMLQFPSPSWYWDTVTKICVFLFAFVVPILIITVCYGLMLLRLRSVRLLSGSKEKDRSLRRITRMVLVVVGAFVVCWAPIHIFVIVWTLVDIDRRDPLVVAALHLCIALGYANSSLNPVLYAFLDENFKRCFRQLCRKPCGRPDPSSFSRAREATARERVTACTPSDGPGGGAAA
Assay [2] deals with T2, Muscarinic acetylcholine receptor M2 (Homo sapiens, UniProt P08172).
T2 sequence (P08172 whole entry): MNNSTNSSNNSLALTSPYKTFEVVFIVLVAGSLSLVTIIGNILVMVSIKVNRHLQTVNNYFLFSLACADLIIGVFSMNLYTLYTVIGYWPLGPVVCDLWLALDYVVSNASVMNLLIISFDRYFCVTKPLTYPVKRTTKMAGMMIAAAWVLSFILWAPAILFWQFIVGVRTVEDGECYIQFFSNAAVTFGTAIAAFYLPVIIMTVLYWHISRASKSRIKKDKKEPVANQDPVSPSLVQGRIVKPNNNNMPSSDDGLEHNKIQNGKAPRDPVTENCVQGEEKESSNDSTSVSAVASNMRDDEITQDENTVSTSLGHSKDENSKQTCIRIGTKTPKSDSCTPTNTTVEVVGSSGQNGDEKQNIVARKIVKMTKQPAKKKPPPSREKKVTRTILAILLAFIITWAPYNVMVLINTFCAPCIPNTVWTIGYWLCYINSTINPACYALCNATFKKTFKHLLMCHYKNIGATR
The class given is functional, cell-based.

Assay [3] concerns the target T3, Prostaglandin G/H synthase 1 (Rattus norvegicus, UniProt Q63921).
T3 sequence (Q63921 whole entry): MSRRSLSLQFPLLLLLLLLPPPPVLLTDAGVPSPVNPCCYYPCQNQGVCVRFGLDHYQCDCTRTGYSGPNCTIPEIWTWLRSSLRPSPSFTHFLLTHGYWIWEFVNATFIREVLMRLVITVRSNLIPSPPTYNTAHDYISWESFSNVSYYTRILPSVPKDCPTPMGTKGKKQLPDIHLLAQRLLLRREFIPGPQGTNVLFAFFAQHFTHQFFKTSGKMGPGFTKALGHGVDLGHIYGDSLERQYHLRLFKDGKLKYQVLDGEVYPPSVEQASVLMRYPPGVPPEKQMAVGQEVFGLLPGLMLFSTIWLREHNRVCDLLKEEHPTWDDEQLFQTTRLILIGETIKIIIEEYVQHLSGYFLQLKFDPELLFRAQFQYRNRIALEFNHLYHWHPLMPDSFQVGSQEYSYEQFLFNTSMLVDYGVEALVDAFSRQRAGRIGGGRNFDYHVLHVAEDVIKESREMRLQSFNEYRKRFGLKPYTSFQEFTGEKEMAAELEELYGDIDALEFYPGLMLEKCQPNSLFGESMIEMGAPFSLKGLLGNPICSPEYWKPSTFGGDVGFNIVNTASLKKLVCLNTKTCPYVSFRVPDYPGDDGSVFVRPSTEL
The class given is functional.

The target in a further assay is T4, Progesterone receptor (Homo sapiens, UniProt P06401).
T4 sequence (P06401 whole entry): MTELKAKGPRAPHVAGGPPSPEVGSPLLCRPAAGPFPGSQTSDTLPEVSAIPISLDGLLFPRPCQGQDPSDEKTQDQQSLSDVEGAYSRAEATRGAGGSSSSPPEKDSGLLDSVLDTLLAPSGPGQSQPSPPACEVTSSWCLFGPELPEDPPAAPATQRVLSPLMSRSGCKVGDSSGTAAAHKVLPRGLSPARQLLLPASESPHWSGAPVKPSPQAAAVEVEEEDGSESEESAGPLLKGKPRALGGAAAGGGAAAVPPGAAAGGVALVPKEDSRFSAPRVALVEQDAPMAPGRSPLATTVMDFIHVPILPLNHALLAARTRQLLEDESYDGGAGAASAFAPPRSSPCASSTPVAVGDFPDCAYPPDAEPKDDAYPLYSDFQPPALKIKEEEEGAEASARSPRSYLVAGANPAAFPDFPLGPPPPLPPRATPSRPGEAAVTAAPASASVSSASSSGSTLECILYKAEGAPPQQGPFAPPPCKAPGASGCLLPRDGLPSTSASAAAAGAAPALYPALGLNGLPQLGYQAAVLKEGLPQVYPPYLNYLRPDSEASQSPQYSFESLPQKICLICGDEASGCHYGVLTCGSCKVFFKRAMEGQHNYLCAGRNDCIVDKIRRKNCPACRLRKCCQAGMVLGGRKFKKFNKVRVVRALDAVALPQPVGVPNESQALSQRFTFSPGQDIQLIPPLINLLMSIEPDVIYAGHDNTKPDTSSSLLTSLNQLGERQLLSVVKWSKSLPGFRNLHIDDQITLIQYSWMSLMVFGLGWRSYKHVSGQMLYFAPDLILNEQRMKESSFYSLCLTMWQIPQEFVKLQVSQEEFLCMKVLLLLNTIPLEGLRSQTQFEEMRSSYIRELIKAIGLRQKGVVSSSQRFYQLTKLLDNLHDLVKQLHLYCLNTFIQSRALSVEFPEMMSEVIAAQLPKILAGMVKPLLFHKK
The class given is functional.

Another assay deals with T5, B2 bradykinin receptor (Homo sapiens, UniProt P30411).
T5 sequence (P30411 whole entry): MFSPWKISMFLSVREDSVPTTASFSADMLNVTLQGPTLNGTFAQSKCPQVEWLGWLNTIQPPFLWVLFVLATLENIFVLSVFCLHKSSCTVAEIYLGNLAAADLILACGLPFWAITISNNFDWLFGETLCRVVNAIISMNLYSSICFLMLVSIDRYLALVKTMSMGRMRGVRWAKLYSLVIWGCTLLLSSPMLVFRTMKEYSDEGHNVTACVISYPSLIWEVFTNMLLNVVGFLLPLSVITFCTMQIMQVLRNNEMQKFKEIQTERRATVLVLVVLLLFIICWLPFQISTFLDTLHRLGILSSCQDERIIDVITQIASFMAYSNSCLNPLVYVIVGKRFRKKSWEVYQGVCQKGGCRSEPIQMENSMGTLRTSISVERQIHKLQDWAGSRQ

The target in the next assay is Vasopressin V1a receptor (Homo sapiens, UniProt P37288).
Chain of Vasopressin V1a receptor (P37288 whole entry): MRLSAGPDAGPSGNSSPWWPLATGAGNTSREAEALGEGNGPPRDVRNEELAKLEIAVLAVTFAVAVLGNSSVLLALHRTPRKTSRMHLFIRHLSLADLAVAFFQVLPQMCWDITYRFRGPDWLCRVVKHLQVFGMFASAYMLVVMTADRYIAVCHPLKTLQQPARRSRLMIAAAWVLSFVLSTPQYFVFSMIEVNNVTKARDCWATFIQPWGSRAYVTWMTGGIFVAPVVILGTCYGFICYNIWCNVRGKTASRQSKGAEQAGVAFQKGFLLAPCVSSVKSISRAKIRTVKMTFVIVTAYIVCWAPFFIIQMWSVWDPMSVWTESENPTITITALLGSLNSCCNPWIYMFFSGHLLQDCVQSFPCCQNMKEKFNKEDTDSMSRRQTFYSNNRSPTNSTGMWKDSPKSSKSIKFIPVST
The target of assay [4] is Neuronal acetylcholine receptor subunit alpha-4 (Homo sapiens, UniProt P43681).
Chain of Neuronal acetylcholine receptor subunit alpha-4 (P43681 whole entry): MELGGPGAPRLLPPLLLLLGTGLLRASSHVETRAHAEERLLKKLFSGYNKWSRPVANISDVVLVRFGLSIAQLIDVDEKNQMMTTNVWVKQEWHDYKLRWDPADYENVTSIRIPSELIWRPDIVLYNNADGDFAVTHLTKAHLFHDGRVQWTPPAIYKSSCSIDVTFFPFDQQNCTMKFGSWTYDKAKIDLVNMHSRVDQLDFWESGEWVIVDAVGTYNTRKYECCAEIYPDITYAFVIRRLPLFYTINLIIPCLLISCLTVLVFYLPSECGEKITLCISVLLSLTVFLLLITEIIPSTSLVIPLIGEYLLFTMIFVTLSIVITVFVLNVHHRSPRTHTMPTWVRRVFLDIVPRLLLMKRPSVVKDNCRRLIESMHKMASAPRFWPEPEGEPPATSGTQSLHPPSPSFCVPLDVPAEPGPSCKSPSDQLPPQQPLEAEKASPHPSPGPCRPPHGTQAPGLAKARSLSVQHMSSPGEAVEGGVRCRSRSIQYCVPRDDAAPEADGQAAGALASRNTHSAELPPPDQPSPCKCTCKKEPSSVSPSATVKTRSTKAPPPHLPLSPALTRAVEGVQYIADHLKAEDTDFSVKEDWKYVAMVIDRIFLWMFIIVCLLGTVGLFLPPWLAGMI
Another assay has as its target Vasopressin V2 receptor (Homo sapiens, UniProt P30518).
Note: assay procedure not described here.

Chain of Vasopressin V2 receptor (P30518 whole entry): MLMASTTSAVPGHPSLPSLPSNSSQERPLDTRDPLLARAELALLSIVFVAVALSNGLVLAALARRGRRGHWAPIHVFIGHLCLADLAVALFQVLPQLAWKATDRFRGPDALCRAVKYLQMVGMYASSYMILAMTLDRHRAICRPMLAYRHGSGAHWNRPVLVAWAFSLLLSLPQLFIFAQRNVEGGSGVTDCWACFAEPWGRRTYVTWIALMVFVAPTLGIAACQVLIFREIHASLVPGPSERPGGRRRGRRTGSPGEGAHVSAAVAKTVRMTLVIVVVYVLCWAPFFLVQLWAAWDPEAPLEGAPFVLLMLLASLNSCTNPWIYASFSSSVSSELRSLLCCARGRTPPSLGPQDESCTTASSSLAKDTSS

With `NCC(=O)CCC(=O)O` [AMINOLEVULINIC ACID], the concentration at half-maximal activity (AC50) (on Adenosine receptor A3; in assay [1]; in assay [2]; in assay [3]; on Progesterone receptor; on B2 bradykinin receptor) was over 30 µM each time. Further, the AC50 (on Vasopressin V1a receptor; in assay [4]; at Vasopressin V2 receptor) was over 30 µM throughout.
Turning to `CC(C[N+](C)(C)C)OC(N)=O` (stereo not given) [BETHANECHOL], the concentration at half-maximal activity (AC50) (usually the midpoint of the concentration-response curve, whichever way the signal moves) at Adenosine receptor A3 was over 10 µM; in [1], over 30 µM; in [2], 3.9 µM; in assay [3], over 10 µM; on Progesterone receptor, over 10 µM; at B2 bradykinin receptor, over 10 µM. The half-maximal activity concentration (AC50) (at Vasopressin V1a receptor; in assay [4]; at Vasopressin V2 receptor) was over 10 µM each time.
`CCOC(=O)[N-]c1cn(N2CCOCC2)n[o+]1` [MOLSIDOMINE]: the half-maximal activity concentration (AC50) at Adenosine receptor A3 is over 30 µM; in assay [1], over 10 µM; in [2], over 30 µM; in [3], 24 µM; at Progesterone receptor it was over 30 µM; at B2 bradykinin receptor, over 30 µM. Besides, the half-maximal activity concentration (AC50) (on Vasopressin V1a receptor; in assay [4]; at Vasopressin V2 receptor) was over 30 µM each time.
In the case of `CCN(CC)C(=O)N[C@H]1C[C@@H]2c3cccc4[nH]cc(c34)C[C@H]2N(C)C1` [TERGURIDE], the half-maximal activity concentration (AC50) (at Adenosine receptor A3; in assay [1]; in assay [2]; in assay [3]; on Progesterone receptor; on B2 bradykinin receptor) was over 30 µM throughout. Also, the AC50 (on Vasopressin V1a receptor; in [4]; at Vasopressin V2 receptor) was over 30 µM in each case.
For the compound `CCCC(C)C1(CC)C(=O)NC(=O)NC1=O` (stereo not given) [PENTOBARBITAL], the half-maximal activity concentration (AC50) at Adenosine receptor A3 is over 10 µM; in assay [1], 19 µM; in assay [2], over 10 µM; in assay [3], over 10 µM; at Progesterone receptor, over 10 µM; at B2 bradykinin receptor, over 10 µM. Moreover, the AC50 (on Vasopressin V1a receptor; in assay [4]; at Vasopressin V2 receptor) was over 10 µM throughout.
